Results taken from patent publication US20160256398A1 (H. Lundbeck A/S, priority 2009, published 2016).
“Also recorded” adds a separate entry of the source.

How the values were obtained:
[1] = 5-way crossover study in healthy volunteers: adverse events by administration form; type: in vivo, human
Excerpt: (§1) 23 subject (12 men and 11 women) participated in the trial; due to drop-outs however, not all 23 subjects received all five treatments—see below for details.
The proximal small bowel is approximately the first meter of the jejunum, and the distal small bowel is approximately the last meter of the ileum, including terminal ileum up to the ileo-caecal junction.
The Enterion™ capsule allows targeted delivery of an active substance into any region of the GI tract. The capsule contains a drug reservoir and a separate compartment for a radioactive tracer. The floor of the reservoir acts a piston which is held back against a spring by a polymer filament. By means of gamma scintigraphy (an imaging technique) the exact position of the capsule in the GI tract can be determined real-time. When the capsule has reached its desired position in the GI tract, a magnetic field is applied which causes an antenna in the capsule all to heat up. The heated antenna is in contact with the polymer filament which softens and eventually breaks which sets the piston (reservoir floor) free and rapidly releases the drug. The Enterion™ capsule is available from Partner Tech, UK.
(§2) Blood samples were obtained at regular intervals 240 hours post-dosing of the IR tablet, post-start of the infusion and post-activation of the Enterion™ capsule. […] Additionally, adverse events were recorded. Food (soup) was provided 4 hours post-dose and dinner 10 hours post-dose.
All 23 subjects received treatments A and B; 22 subjects received treatment C; 20 subjects received treatment D; and 19 received treatment E.
The table below summarises the adverse events recorded during the course of the trial.

[2] = system: acetylcholine, norepinephrine, dopamine, and serotonin in brain regions associated with mood regulation; conditions: extracellular levels in rat brains; cited from earlier work
[3] = 5-way crossover study in healthy volunteers: plasma concentration-time profile; type: in vivo, human
Method: as §1, §2
The plasma concentration time profiles are depicted in FIG. 1.

[4] = cited from earlier work
[5] = depressed patients; cited from earlier work
[6] = Regimen B: 20 mg, single oral dose, two 10 mg IR tablets, 23 subjects
[7] = Regimen C: 9 mg iv infusion over 6 hours, 22 subjects
[8] = Regimen D: 20 mg solution via Enterion capsule to proximal small bowel, 20 subjects
[9] = Regimen E: 20 mg solution via Enterion capsule to distal small bowel, 19 subjects

Br.Cc1ccc(Sc2ccccc2N2CCNCC2)c(C)c1 [Compound I HBr, 1-[2-(2,4-dimethyl-phenylsulfanyl)-phenyl]piperazine hydrobromide]
Abdominal pain [1, 6]: 2 no of subjects | Fatigue [1, 6]: 2 no of subjects | Headache [1, 6]: 3 no of subjects | Lightheadedness/postural dizziness (no BP drop) [1, 6]: 5 no of subjects | Nausea [1, 6]: 9 no of subjects | Retching [1, 6]: 1 no of subjects | Vomiting [1, 6]: 2 no of subjects | Abnormal liver function tests [1, 7]: 1 no of subjects | Headache [1, 7]: 2 no of subjects | Nausea [1, 7]: 1 no of subjects | Postural hypotension [1, 7]: 2 no of subjects | Abdominal pain [1, 8]: 1 no of subjects | Headache [1, 8]: 1 no of subjects | Lightheadedness/postural dizziness (no BP drop) [1, 8]: 1 no of subjects | Nausea [1, 8]: 3 no of subjects | Postural hypotension [1, 8]: 1 no of subjects | Pruritis [1, 8]: 1 no of subjects | Vomiting [1, 8]: 1 no of subjects | Abdominal pain [1, 9]: 1 no of subjects | Nausea [1, 9]: 2 no of subjects | Postural hypotension [1, 9]: 3 no of subjects | Rash [1, 9]: 1 no of subjects

Cc1ccc(Sc2ccccc2N2CCNCC2)c(C)c1 [Compound I, 1-[2-(2,4-dimethyl-phenylsulfanyl)-phenyl]piperazine]
levels of acetylcholine, norepinephrine (noradrenaline), dopamine and serotonin in brain [2]: increase; also recorded: significant increases | overall number of adverse events ([1]; regimen B, IR tablet): most adverse events | overall number of adverse events ([1]; regimen C, D and E: i.v. infusion, released in the proximal or distal small bowel): markedly lower number of adverse events | plasma concentration-time profile, dependence on administration form ([3]; IR tablet versus release in the small intestine (FIG. 1, regimens B, D, E)): virtually independent on whether Compound I is administered in an IR tablet or released in the small intestine | characteristics of plasma concentration-time profile ([3]; administration in an IR composition): relative late tmax and a plasma concentration plateau around tmax | sleep and sexually related adverse events in depressed patients ([4]; clinical trials disclosed in WO 2008/113359): surprisingly low level | efficacy in the treatment of major depressive disorder ([4]; dosed at 5 and 10 mg): efficacious | safety and tolerability in first clinical trial ([4]; dosed at 5 and 10 mg): safe and well-tolerated

Fc1ccc([C@@H]2CCNC[C@H]2COc2ccc3c(c2)OCO3)cc1 [paroxetine]
nausea with enteric coated, sustained release tablet compared with IR tablet [5]: less nausea | other GI related adverse events such as diarrhea, abnormal ejaculation, female genital disorders and dizziness with enteric coated tablet compared with IR tablet [5]: appeared to increase
